The text below walks through data of publication PMC3228860, “Mitochondrial NAD^+-dependent malic enzyme from Anopheles stephensi: a possible novel target for malaria mosquito control” (2011).

Molecules are shown by their SMILES.

In this test the target is mitochondrial NAD+-dependent malic enzyme (ME). The test can be described thus: NADH formation at […] nm, mitochondrial lysate, Ki from reciprocal plots. The format is biochemical, Anopheles stephensi.
For `O=C(O)C(=O)O` [Oxalate], the Ki (commonly a dissociation constant, usually derived from enzyme kinetics or from competition with a known ligand) was found to be 150 nM.

The compound `O=C(O)CC(=O)C(=O)O` [Oxaloacetate] gave a Ki of 120 nM.

The compound `O=C(O)C(O)C(=O)O` [Tartronate] showed a Ki of 610 nM.
